Measurements taken from US8912188B2, “Substituted quinoxaline carboxylic acids for the inhibition of PASK” (BioEnergenix, LLC, priority 2011, dated 2014).

How the values were obtained:
PASK (Invitrogen) = target: T1, PASK (Invitrogen) (Homo sapiens, UniProt Q96RG2); test: PAS Kinase FRET Assay; assay type: biochemical; settings: PAS kinase TR-FRET assay (665 nm/615 nm), 2 hours at 25° C.; read-out: IC50 Kinase Domain
T1 construct: IC50 Kinase Domain; purchased Invitrogen

PASK = target: T2, PASK (UniProt #Q96RG2; human recombinant N-terminal GST tagged construct, residues 879-1323) (Homo sapiens, UniProt Q96RG2); test: PASK ATP Radiochemical Assay; assay type: biochemical; settings: 33P-ATP, Myelin Basic Protein substrate, 120 min at room temperature, read-out: IC50 Kinase Domain
T2 construct: human recombinant N-terminal GST tagged construct, residues 879-1323; GST (N); host or cells: insect cells
T2 sequence (Q96RG2 879-1323, stated change not applied): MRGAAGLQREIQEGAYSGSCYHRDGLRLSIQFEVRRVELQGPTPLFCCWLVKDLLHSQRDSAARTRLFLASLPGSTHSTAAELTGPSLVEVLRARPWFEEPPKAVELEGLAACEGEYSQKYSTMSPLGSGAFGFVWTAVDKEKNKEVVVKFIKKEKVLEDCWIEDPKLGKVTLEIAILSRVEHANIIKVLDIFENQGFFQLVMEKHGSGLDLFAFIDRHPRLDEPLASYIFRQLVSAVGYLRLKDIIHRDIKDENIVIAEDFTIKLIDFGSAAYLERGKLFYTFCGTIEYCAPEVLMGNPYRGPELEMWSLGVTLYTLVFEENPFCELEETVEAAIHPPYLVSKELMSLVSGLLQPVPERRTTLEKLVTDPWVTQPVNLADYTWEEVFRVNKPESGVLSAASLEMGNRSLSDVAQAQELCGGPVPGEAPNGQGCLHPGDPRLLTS
Experimental: Biochemical Assay for hPASK Activity
PASK ATP Radiochemical Assay
Test compounds in DMSO are then added and the mixture, followed by delivery of ^33P-ATP (specific activity 0.01 μCi/μl final) to initiate the reaction. […] The entire reaction mixture is washed through onto a P81 Phosphocellulose paper and washed three times for 10 minutes in 75 mM phosphoric acid and once in methanol prior to drying and scintillation counting.

[1] = In vivo pharmacokinetics in the Sprague Dawley rat; settings: for bioavailability / half-life: blood; for bioavailability: po, 10 mg/kg; for bioavailability / half-life / volume of distribution: summary of Table 3; for t1/2 (half-life): intravenous 3 mg/kg (1 mg/kg for Example 105), oral 10 mg/kg; for Cl (clearance) / Vss (volume of distribution): intravenous via tail vein, 3 mg/kg (1 mg/kg for Example 105); for Tmax (time to maximum blood concentration after an oral dose): oral gavage 10 mg/kg; for F (oral bioavailability): oral gavage 10 mg/kg vs intravenous 3 mg/kg (1 mg/kg for Example 105)
Experimental: Pharmacokinetics of a PASK Inhibitor
The test compounds were formulated in polyethylene glycol and beta cyclodextrin in water for administration at 1 mg/kg for Example 105, and at 3 mg/kg for Example 14, 15, and 18 for intravenous administration via the tail vein and 10 mg/kg for oral administration by gavage. Blood samples were collected at 0.083, 0.25, 0.5, 1, 2, 4, 6, 8, and 24 hours and the samples were analyzed for test compounds content using LC/MS/MS. The data was submitted to pharmacokinetic analysis using WinNonLin software and the observed and calculated pharmacokinetic parameters are shown in Table 3 for each compound.

T1 sequence (Q96RG2 999-1251 limits assumed): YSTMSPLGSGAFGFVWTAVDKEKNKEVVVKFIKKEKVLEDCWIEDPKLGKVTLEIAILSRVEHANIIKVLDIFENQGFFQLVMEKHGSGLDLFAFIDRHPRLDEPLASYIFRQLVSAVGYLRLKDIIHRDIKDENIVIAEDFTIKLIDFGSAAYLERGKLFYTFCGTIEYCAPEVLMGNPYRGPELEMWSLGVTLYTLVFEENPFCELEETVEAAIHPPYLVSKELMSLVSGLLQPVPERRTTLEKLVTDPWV

Row | SMILES | IC50 (PASK (Invitrogen)) [µM] | IC50 (PASK) [µM] | bioavailability [1] [%] | half-life [1] [h] | t1/2 (half-life) [1] [h] | Cl (clearance) [1] [mL/min/kg] | Vss (volume of distribution) [1] [L/kg] | Tmax (time to maximum blood concentration after an oral dose) [1] [h] | F (oral bioavailability) [1] [%] | volume of distribution [1]
1 | C[C@H]1COCCN1c1nc2cc(C(=O)O)ccc2nc1-c1ccc(F)cc1 [Example 105, (S)-2-(4-Fluorophenyl)-3-(3-methylmorpholino)quinoxaline-6-carboxylic acid] | < 10 | < 10 | > 74 | > 7 | 7.72 | 0.712 | 0.407 | 1 | 74.8 | low
2 | C[C@H]1CCCN1c1nc2cc(C(=O)O)ccc2nc1-c1cc2ccccc2o1 [Example 14, (S)-2-(Benzofuran-2-yl)-3-(2-methylpyrrolidin-1-yl)quinoxaline-6-carboxylic acid] | < 10 | < 10 | ≥ 63 | ≥ 3 | 3.68 | 1.72 | 0.362 | 6 | 63.4 | low
3 | CN(c1nc2cc(C(=O)O)ccc2nc1-c1cc2ccccc2o1)C1CC1 [Example 15, 2-(Benzofuran-2-yl)-3-(cyclopropyl(methyl)amino)quinoxaline-6-carboxylic acid] | < 10 | < 10 | ≥ 63 | ≥ 3 | 3.39 | 1.4 | 0.347 | 6 | 79 | low
4 | CC(C)N(C)c1nc2cc(C(=O)O)c(O)cc2nc1-c1ccc(F)cc1 [Example 120, 2-(4-Fluorophenyl)-7-hydroxy-3-(isopropyl(methyl)amino)quinoxaline-6-carboxylic acid] | < 10 | < 10 | – | – | – | – | – | – | – | –
5 | Cc1cc2cc(-c3nc4ccc(C(=O)O)cc4nc3N(C)C(C)C)ccc2[nH]1 [Example 76, 3-[Methyl(propan-2-yl)amino]-2-(2-methyl-M-indol-5-yl)quinoxaline-6-carboxylic acid] | < 10 | < 10 | – | – | – | – | – | – | – | –
6 | CC(=O)Nc1ccc(-c2nc3ccc(C(=O)O)cc3nc2N(C)C(C)C)cc1 [Example 149, 2-(4-Acetamidophenyl)-3-[methyl(propan-2-yl)amino]quinoxaline-6-carboxylic acid] | < 10 | < 10 | – | – | – | – | – | – | – | –
7 | O=C(O)c1ccc2nc(-c3ccc4c(c3)OC(F)(F)O4)c(N3CCCCCC3)nc2c1 [Example 51, 3-(Azepan-1-yl)-2-(2,2-difluoro-2H-1,3-benzodioxol-5-yl)quinoxaline-6-carboxylic acid] | < 10 | < 10 | – | – | – | – | – | – | – | –
8 | CC(C)N(C)c1nc2cc(C(=O)O)ccc2nc1-c1cc2cc(F)ccc2o1 [Example 18, 2-(5-Fluorobenzofuran-2-yl)-3-(isopropyl(methyl)amino)quinoxaline-6-carboxylic acid] | < 10 | < 10 | ≥ 63 | ≥ 3 | 7.72 | 1.33 | 0.366 | 8 | 74.8 | low
9 | CN(c1nc2cc(C(=O)O)ccc2nc1-c1cc2cc(F)ccc2o1)C1CC1 [Example 61, 3-[Cyclopropyl(methyl)amino]-2-(5-fluoro-1-benzofuran-2-yl)quinoxaline-6-carboxylic acid] | < 10 | < 10 | – | – | – | – | – | – | – | –
10 | C[C@H]1CCCCN1c1nc2cc(C(=O)O)ccc2nc1-c1ccc(F)cc1F [Example 116, (S)-2-(2,4-Difluorophenyl)-3-(2-methylpiperidin-1-yl)quinoxaline-6-carboxylic acid] | < 10 | < 10 | – | – | – | – | – | – | – | –
11 | CC(C)N(C)c1nc2cc(C(=O)O)ccc2nc1-c1cc[nH]c1 [Example 81, 3-[Methyl(propan-2-yl)amino]-2-(1H-pyrrol-3-yl)quinoxaline-6-carboxylic acid] | < 10 | < 10 | – | – | – | – | – | – | – | –
